Consider one compound from patent US20040086904A1, “Screening assay for cotranslational translocation interfering compounds” (priority 2001, published 2004).

Series [1] relates to VCAMSP15+4/E-Sel. In words: Chimeric fusion construct sensitivity (cell-free translation/translocation and transfected HEK293 cells). The format is cell-based. Conditions: 15 aa of the SP plus 4 aa of the adjacent mature domain of VCAM-1. Here is the method: (§1) The E-Selectin and ICAM-1 expression vectors pCDM8-E-selectin and pCDM8-ICAM-1 allowing transient expression in mammalian cells and cell-free translation are obtained from R&D Systems. VCAM-1 cDNA is obtained by reverse transcription of total RNA from TNF-α stimulated primary human umbilical vein endothelial cells (HUVEC) as follows. After extraction of total RNA with Trizol (GibcoBRL) according to the suppliers recommendations, reverse transcription (RT) PCR on approximately 3 μg total HUVEC RNA is performed using the Advantage High Fidelity PCR kit (CLONTECH) under standard conditions with N- and C-terminal VCAM-1-specific sense and antisense oligonucleotide primers, respectively. Primers are tailed, introducing a Kpnl restriction site 5′ of the Kozak sequence and a Xhol site 3′ of the stop codon. Placental SEAP is amplified accordingly by PCR using plasmid pBC 12/PLAP489 (Berger et al., 1988) as a template and similar tailed SEAP-specific sense and antisense oligonuclotide primers. The SEAP and VCAM-1 cDNAs are isolated and cloned into the pCR2.1 vector (TA cloning kit, Invitrogen). All sequences are confirmed by sequencing and subsequently subcloned into the mammalian expression vector pcDNA3.1 (+) (Invitrogen) as Kpnl Xhol fragments for transient expression under control of the constitutive immediate-early CMV promoter and for cell-free translation from the bacteriophage T7 promoter. To generate SP-gene fusion constructs the recombinant PCR-ligation-PCR mutagenesis method is used (Ali and Steinkasserer, 1995). Briefly, in a primary PCR reaction the two fusion gene fragments are independently amplified using appropriate specific primers for the SPs (PCR product A) and the mature sequences (PCR product B), respectively. Approximately equal molar quantities of each PCR product A and B are phosphorylated and ligated. Finally, out of the possible ligation combinations, the desired fusion gene construct is specifically amplified from an aliquot of the ligation reaction by a secondary PCR using the 5′ sense primer of the SP and the 3′ antisense primer of the mature sequence. […]

In series [2] the target is T1, VCAM-1 mutant molecule containing the SP from E-Selectin (Homo sapiens, UniProt P19320).
T1 construct: E-Selectin signal peptide (SP; SELE, P16581), replacing VCAM-1's own SP (N); expressed in transfected cells; host or cells: HEK293 (transient); also translated cell-free in reticulocyte lysate with microsomes
Described as above. Format: cell-based. The following applies: cell-free translation/translocation assay and transiently transfected HEK293 cells. Here is the method:
as §1

Series [3] deals with T2, E-Selectin mutant molecule with SP from VCAM-1 (Homo sapiens, UniProt P16581).
T2 construct: VCAM-1 signal peptide (SP; VCAM1, P19320), replacing E-Selectin's own SP (N); expressed in transfected cells; host or cells: HEK293 (transient); also translated cell-free in reticulocyte lysate with microsomes
The series is described as above. The following applies: cell-free translation/translocation assay and transiently transfected HEK293 cells. The format is cell-based. Here is the method: as §1

In series [4] the target is T3, VCAM-1 (Homo sapiens, UniProt P19320).
T3 sequence (P19320 25-739): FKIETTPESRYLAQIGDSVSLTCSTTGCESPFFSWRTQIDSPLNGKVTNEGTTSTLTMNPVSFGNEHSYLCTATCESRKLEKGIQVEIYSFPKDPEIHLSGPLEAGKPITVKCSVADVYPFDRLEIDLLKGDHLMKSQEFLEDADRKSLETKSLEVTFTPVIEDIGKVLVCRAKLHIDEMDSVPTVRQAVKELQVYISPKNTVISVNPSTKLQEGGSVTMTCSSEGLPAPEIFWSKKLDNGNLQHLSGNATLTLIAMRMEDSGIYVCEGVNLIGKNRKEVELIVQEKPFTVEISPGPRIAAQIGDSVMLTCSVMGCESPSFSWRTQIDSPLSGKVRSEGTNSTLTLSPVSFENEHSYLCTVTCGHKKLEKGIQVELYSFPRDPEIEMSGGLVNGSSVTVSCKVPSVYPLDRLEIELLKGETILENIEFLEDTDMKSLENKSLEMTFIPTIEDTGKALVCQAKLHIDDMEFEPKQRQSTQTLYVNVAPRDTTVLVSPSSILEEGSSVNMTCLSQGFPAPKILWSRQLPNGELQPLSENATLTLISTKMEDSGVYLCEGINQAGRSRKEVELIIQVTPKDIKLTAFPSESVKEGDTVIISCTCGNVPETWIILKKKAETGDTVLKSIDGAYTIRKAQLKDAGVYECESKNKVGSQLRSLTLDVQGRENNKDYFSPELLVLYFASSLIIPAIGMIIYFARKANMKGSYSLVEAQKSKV
Experimental: Cell-free translations are carried out in the coupled TNT reticulocyte lysate system (Promega) using bacteriophage T7 polymerase according to the suppliers recommendations in a final volume of 25 μl and in the presence of [^35S]-methionine (Redivue, 10 mCi/ml, Amersham). To study cotranslational translocation across the ER membrane dog pancreatic microsomes (Promega) are present during translation reactions at concentrations between 1 to 2.5 μl per 25 μl reaction mixture. After translation/translocation, 2.5 μl of the reaction mixture are denatured in SDS loading buffer (12.5 mM Tris-HCl, pH 6.8, 80 μM EDTA, 26 mM DTT, 1% SDS, 100 g/ml bromphenol blue, 0.01% NaN3) for 5 minutes at 95° and subjected to SDS-PAGE (4-20% gradient or 15% Excel gels, Pharmacia). Gels are analyzed by autoradiography and quantitated using an Instant Phosphoimager (Packard). […]
To investigate the possibility that the candidate compound is interfering at this early stage of protein expression the effect of the drug on the process of cotranslational translocation in a cell-free assay system is analysed. […]

On to `CCCCC(C)CC1NC(=O)C(Cc2cn(OC)c3ccccc23)N(C)C(=O)C(CC(C)C)NC(=O)C(CC(C)C)N(C)C(=O)C(CC(C)CCCC)NC(=O)C(CCC(=O)OCCC)OC(=O)C(C)N(C)C1=O` (stereo not shown) [CP], for which the “sensitivity of the chimeric construct to the compound” value in series [1] was “full sensitivity”; in series [2] it was “resistant”; in series [3], “partially sensitive”. Also, in series [4], the “core-glycosylated and protease-protected form of VCAM-1 (translocation across microsomal membranes)” value was “inhibited by increasing concentrations”.
